The record followed here is ChEMBL document CHEMBL1154464, “Constrained analogues of tocainide as potent skeletal muscle sodium channel blockers towards the development of antimyotonic agents” (Eur J Med Chem, 2008).

A short description of test [1]: Blockade of Nav1.4 sodium channel in frog semitendinosus muscle fibres assessed as tonic block elicited by infrequent depolarizing pulses at a frequency of 0.3 Hz by vaseline-gap voltage clamp method. It counts as tissue-based, Pelophylax lessonae.
A short description of test [2]: Blockade of Nav1.4 sodium channel in frog semitendinosus muscle fibres assessed as phasic block at 10 Hz stimulation frequency by vaseline-gap voltage clamp method. It counts as tissue-based, Pelophylax lessonae.
The next test deals with Pelophylax lessonae. The test is described as follows: Ratio of IC50 for tonic blockade of Nav1.4 sodium channel to phasic blockade of Nav1.4 sodium channel in frog semitendinosus muscle fibres. It counts as tissue-based.

Consider `Cc1cccc(C)c1NC(=O)C(C)N` (configuration not stated) [TOCAINIDE], for which the figures for the IC50 in test [1] and in test [2] were 581 µM and 273 µM, respectively.

Regarding `Cc1cccc(C)c1NC(=O)C1CN(Cc2ccccc2)CCN1` (configuration not stated), in the test on Pelophylax lessonae, the Ratio IC50 is 13. Besides, the IC50 (as a rule, the midpoint of a concentration-inhibition curve) in test [1] was determined as 31.6 µM; in test [2], 2.4 µM.

On to `Cc1cccc(C)c1NC(=O)C1CCCN(Cc2ccccc2)C1` (configuration not stated), for which the IC50 in test [1] was determined as 38.5 µM; in test [2] it was 4.5 µM.
